# Key:
# Format in all cases: in vivo, mice (C57BL/6)
# [1] = system: model animals with acute colitis induced by TNBS; assay: Acute colitis induced by TNBS in mice, primary experiment: weight change, colon appearance score, colon length; settings: TNBS-treated mice, 10 mg/kg orally once daily for 3 days, percentage to normal group (saline, no TNBS)
# Experimental: All the mice were bred under the controlled environmental conditions of 50±10% of humidity at a temperature of 20° C. to 22° C., and the lighting was provided by repeatedly turning on for 12 hours followed by turning off for 12 hours. A feed for a standard experiment (Samyang, Korea) was used as a feed, and ad libitum access to water was allowed. In all experiments, each group consisted of 6 mice. […] Meanwhile, for the normal group, 0.1 mL of normal saline solution was orally administered. Subsequently, from the following day, the sample dissolved in normal saline solution was orally administered at a predetermined volume once daily for 3 days. On the following day after completing the sample administration, the experimental animals were suffocated to death with carbon dioxide, and the colon from the appendix to the region immediately before the anus was removed from the colon region. In this case, as a drug sample, the experiments using the butanol-soluble fraction of the Anemarrhena asphodeloides Bunge extract, mangiferin, and a combined extract were separately performed with time intervals, respectively, and the effects of the drug samples on preventing or treating colitis were reasonably analyzed based on the group supplied with normal saline solution instead of a specific drug in the model animals not treated with TNBS, for each of the experiments. The sample administration to the model animals with colitis induced by TNBS was stopped, and on the following day, the weight of the experimental animals was measured, and the measured weight was compared with the initial weight to calculate the amount of change in weight. The scores about the removed colons were estimated by observing the appearances and the length of the colons according to the following criteria (Hollenbach, et al., the criteria about the colitis level in 2005) as listed in Table 1. In this case, as a positive control group, the group administered with Mesalazine® (Sigma) was used. […]
# Myeloperoxidase (MPO) [2] = assay: MPO activity in colon tissue (ELISA kit), TNBS acute colitis, primary experiment; settings: TNBS-treated mice, 10 mg/kg orally once daily for 3 days, percentage to normal group
# Experimental: (§1) Among the experimental groups, one group was set as a normal group, and the experimental animals in other groups were induced with acute colitis by 2,4,6-trinitrobenzenesulfonic acid (TNBS). In detail, after lightly anesthetizing the experimental animals with ether, 0.1 mL of the solution prepared by mixing 2.5 g of 2,4,6-Trinitrobenzene sulfonic acid (NBS) solution with 50% ethanol was injected into the colon through the anus using a syringe having 1 mL volume and an oval point, respectively; the syringe was vertically picked up, and then, maintained for 30 seconds to induce inflammation. Meanwhile, for the normal group, 0.1 mL of normal saline solution was orally administered. […] In this case, as a drug sample, the experiments using the butanol-soluble fraction of the Anemarrhena asphodeloides Bunge extract, mangiferin, and a combined extract were separately performed with time intervals, respectively, and the effects of the drug samples on preventing or treating colitis were reasonably analyzed based on the group supplied with normal saline solution instead of a specific drug in the model animals not treated with TNBS, for each of the experiments.
# 100 mg of colon tissues were homogenized after adding 200 μL of lysis buffer thereto. […] Subsequently, 100 μL of a stop solution was added to terminate the reaction, and the absorbance was measured at 450 nm using an ELISA reader.
# TNF-α = TNF-α expression in colon tissue (ELISA), TNBS acute colitis, primary experiment; settings: TNBS-treated mice, 10 mg/kg orally once daily for 3 days, percentage to normal group
# Experimental: as §1, with “administered. Subsequently, from the following day, the sample dissolved in normal saline solution was orally administered at a predetermined volume once daily for 3 days.” for “administered.”, “experiments. […]” for “experiments.”
# IL-1β = IL-1β expression in colon tissue (ELISA), TNBS acute colitis, primary experiment; settings: TNBS-treated mice, 10 mg/kg orally once daily for 3 days, percentage to normal group
# Experimental: as §1, with “administered. Subsequently, from the following day, the sample dissolved in normal saline solution was orally administered at a predetermined volume once daily for 3 days.” for “administered.”, “experiments. […]” for “experiments.”
# IL-6 = IL-6 expression in colon tissue (ELISA), TNBS acute colitis, primary experiment; settings: TNBS-treated mice, 10 mg/kg orally once daily for 3 days, percentage to normal group
# Experimental: as §1, with “administered. Subsequently, from the following day, the sample dissolved in normal saline solution was orally administered at a predetermined volume once daily for 3 days.” for “administered.”, “experiments. […]” for “experiments.”
# IL-10 = IL-10 expression in colon tissue (ELISA), TNBS acute colitis, primary experiment; settings: TNBS-treated mice, 10 mg/kg orally once daily for 3 days, percentage to normal group
# Experimental: as §1, with “administered. Subsequently, from the following day, the sample dissolved in normal saline solution was orally administered at a predetermined volume once daily for 3 days.” for “administered.”, “experiments. […]” for “experiments.”
# [3] = system: model animals with acute colitis induced by TNBS; assay: Acute colitis induced by TNBS in mice, secondary experiment (extract-based and fraction-based): weight change, colon length, macroscopic score; settings: TNBS-treated mice, percentage to normal group
# Experimental: All the mice were bred under the controlled environmental conditions of 50±10% of humidity at a temperature of 20° C. to 22° C., and the lighting was provided by repeatedly turning on for 12 hours followed by turning off for 12 hours. A feed for a standard experiment (Samyang, Korea) was used as a feed, and ad libitum access to water was allowed. In all experiments, each group consisted of 6 mice. […] Meanwhile, for the normal group, 0.1 mL of normal saline solution was orally administered. Subsequently, from the following day, the sample dissolved in normal saline solution was orally administered at a predetermined volume once daily for 3 days. On the following day after completing the sample administration, the experimental animals were suffocated to death with carbon dioxide, and the colon from the appendix to the region immediately before the anus was removed from the colon region. In this case, the experiments, where an ethanol extract of Anemarrhena asphodeloides Bunge, an ethanol extract of Coptis chinensis, a combined extract of the ethanol extract of Anemarrhena asphodeloides Bunge and the ethanol extract of Coptis chinensis, and a combined extract of a water extract of Anemarrhena asphodeloides Bunge and a water extract of Coptis chinensis were used as drug samples (hereinafter, “extract-based experiment”), and the experiments, where a butanol-soluble fraction of the ethanol extract of Anemarrhena asphodeloides Bunge, a butanol-soluble fraction of the ethanol extract of Coptis chinensis, and a combined extract of the butanol-soluble fraction of the ethanol extract of Anemarrhena asphodeloides Bunge and the butanol-soluble fraction of the ethanol extract of Coptis chinensis were used as drug samples (hereinafter, “fraction-based experiment”) were separately performed with time intervals, respectively. Considering the characteristics of animal experiments, it is reasonable that the effects of the drug samples on preventing or treating colitis be evaluated within each of the experiments and that the normal group supplied with saline solution instead of a specific drug sample, for the experimental animals not treated with TNBS, be used as a standard. The sample administration to the model animals with colitis induced by TNBS was stopped, and on the following day, the weight of the experimental animals was measured were and then compared with their initial weight to calculate the change in the amount of weight. The scores on the removed colons were estimated by observing the appearances and the length of the colons according to the criteria (Hollenbach et al., the criteria on the levels of colon in 2005) listed in Table 3. In this case, as a positive control group, the group administered with Mesalazine® (Sigma) was used. Additionally, a portion of the content in the colon was collected to analyze the intestinal microorganisms, and then stored in a freezer maintained at −80° C. From the tissues of colon, the content in the colon was completely removed and then the tissues of colon were washed with normal saline solution.
# Myeloperoxidase (MPO) [4] = assay: MPO activity in colon tissue (ELISA kit), TNBS acute colitis, secondary experiment; settings: TNBS-treated mice, percentage to normal group
# Experimental: Among the experimental groups, one group was set as a normal group, and the experimental animals in other groups were induced with acute colitis by 2,4,6-trinitrobenzenesulfonic acid (TNBS). In detail, after lightly anesthetizing the experimental animals with ether, 0.1 mL of the solution prepared by mixing 2.5 g of 2,4,6-Trinitrobenzene sulfonic acid (NBS) solution with 50% ethanol was injected into the colon through the anus using a syringe having 1 mL volume and an oval point, respectively; the syringe was vertically picked up, and then, maintained for 30 seconds to induce inflammation. Meanwhile, for the normal group, 0.1 mL of normal saline solution was orally administered. Subsequently, from the following day, the sample dissolved in normal saline solution was orally administered at a predetermined volume once daily for 3 days. On the following day after completing the sample administration, the experimental animals were suffocated to death with carbon dioxide, and the colon from the appendix to the region immediately before the anus was removed from the colon region. In this case, the experiments, where an ethanol extract of Anemarrhena asphodeloides Bunge, an ethanol extract of Coptis chinensis, a combined extract of the ethanol extract of Anemarrhena asphodeloides Bunge and the ethanol extract of Coptis chinensis, and a combined extract of a water extract of Anemarrhena asphodeloides Bunge and a water extract of Coptis chinensis were used as drug samples (hereinafter, “extract-based experiment”), and the experiments, where a butanol-soluble fraction of the ethanol extract of Anemarrhena asphodeloides Bunge, a butanol-soluble fraction of the ethanol extract of Coptis chinensis, and a combined extract of the butanol-soluble fraction of the ethanol extract of Anemarrhena asphodeloides Bunge and the butanol-soluble fraction of the ethanol extract of Coptis chinensis were used as drug samples (hereinafter, “fraction-based experiment”) were separately performed with time intervals, respectively. Considering the characteristics of animal experiments, it is reasonable that the effects of the drug samples on preventing or treating colitis be evaluated within each of the experiments and that the normal group supplied with saline solution instead of a specific drug sample, for the experimental animals not treated with TNBS, be used as a standard.
# 100 mg of colon tissues were homogenized after adding 200 μL of lysis buffer thereto. The homogenized colon tissues were centrifuged at 4° C. at a rate of 13000 rpm for 15 minutes, the supernatant therefrom was recovered, and the MPO activity was measured using a mouse MPO assay ELISA kit (Hbt HK210, USA). 100 μL of the supernatant was added into a 96-well plate and reacted at room temperature for 1 hour. Upon completion of the reaction, the plate was emptied by overturning, repeatedly washed three times with 200 μL of washing buffer, added with 100 μL of diluted tracer, and then the reaction was allowed to perform at room temperature for 1 hour. Upon completion of the reaction, the plate was emptied by overturning, and each well of the plate was washed using 200 μL of washing buffer. After repeatedly performing the washing process three times using 200 μL of washing buffer, 100 μL of diluted streptavidin-peroxidase conjugate was added thereto, and the reaction was allowed to perform at room temperature for 1 hour. Upon completion of the reaction, the plate was emptied by overturning, and each well of the plate was washed with 200 μL of washing buffer. After repeatedly washing three times using 200 μL of washing buffer, 100 μL of TMB substrate solution was added thereto, the plate was wrapped with an aluminum foil to block out the light, and the reaction was performed at room temperature for 30 minutes. Subsequently, 100 μL of a stop solution was added to terminate the reaction, and the absorbance was measured at 450 nm using an ELISA reader.
# [5] = extract-based experiment, 10 mg/kg orally once daily for 3 days
# [6] = extract-based experiment, 20 mg/kg orally once daily for 3 days
# [7] = extract-based experiment, 50 mg/kg orally once daily for 3 days
# [8] = fraction-based experiment, 10 mg/kg orally once daily for 3 days
# [9] = fraction-based experiment, 20 mg/kg orally once daily for 3 days
# [10] = fraction-based experiment, 50 mg/kg orally once daily for 3 days
compound,measurement,setting,value
"Nc1ccc(O)c(C(=O)O)c1 [Mesalazine ®, Mesalazine]",Body weight,[1],93.2%
same,Colon length,[1],89.9%
same,Macroscopic score,[1],550.5%
same,MPO activity,Myeloperoxidase (MPO) [2],1111.6%
same,TNF-α,TNF-α,304.1%
same,IL-1β,IL-1β,618.4%
same,IL-6,IL-6,190.0%
same,IL-10,IL-10,53.1%
same,Body weight,[3]; [5],59.46%
same,Colon length,[3]; [5],89.06%
same,Macroscopic score,[3]; [5],420%
same,Body weight,[3]; [6],78.38%
same,Colon length,[3]; [6],90.63%
same,Macroscopic score,[3]; [6],420%
same,Body weight,[3]; [7],75.68%
same,Colon length,[3]; [7],90.63%
same,Macroscopic score,[3]; [7],450%
same,Body weight,[3]; [8],59.46%
same,Colon length,[3]; [8],90.48%
same,Macroscopic score,[3]; [8],500%
same,Body weight,[3]; [9],78.38%
same,Colon length,[3]; [9],92.06%
same,Macroscopic score,[3]; [9],500%
same,Body weight,[3]; [10],75.68%
same,Colon length,[3]; [10],92.06%
same,Macroscopic score,[3]; [10],600%
same,MPO activity,Myeloperoxidase (MPO) [4]; [5],360%
same,MPO activity,Myeloperoxidase (MPO) [4]; [6],360%
same,MPO activity,Myeloperoxidase (MPO) [4]; [7],390%
same,MPO activity,Myeloperoxidase (MPO) [4]; [8],300%
same,MPO activity,Myeloperoxidase (MPO) [4]; [9],300%
same,MPO activity,Myeloperoxidase (MPO) [4]; [10],317%
